Laboratory results from US6528251B2, “Method of managing the chemotherapy of patients who are HIV positive based on the phenotypic drug sensitivity of human HIV strains” (Virco N.V., priority 1996, dated 2003).
Read-outs that look alike come from different tables or passages of the source.

Legend:
Assay type in all cases: cell-based, HIV-1
[1] = system: recombinant virus from patient viral RNA (Example 5, 3TC resistant HIV strains); test: Recombinant virus assay (MT4/MTT), patient of Example 5 (AZT, then AZT+3TC therapy)
Experimental: (§1) RNA was isolated from 100 μl of plasma according to the method described by Boom, R. et al. (1990, supra), and was reverse transcribed with the GeneAmp reverse transcriptase kit (Perkin Elmer) as described by the manufacturer and using an HIV-1 specific downstream primer (OUT3: 5′-CATTGCTCTCCAATTACTGTGATATTTCTCATC-3′; SEQ ID NO: 1). PCR on reverse transcribed RNA was performed with inner and outer primers as described by Kellam, P. and Larder, B. A. (1994, supra). After chloroform extraction and centrifugation on Centricon 100 columns or centrifugation on anion-exchange spin columns (Quiagen), the isolated PCR product was ready for use in the transfection reactions.
(§2) MT4 cells were subcultured at a density of 250,000 cells/ml before transfection (exponential growth phase). Cells were pelleted and resuspended in phosphate buffered saline (PBS) at a concentration of […]. A 0.8 ml portion (2.5 10E6 cells/ml) was used for each transfection. Transfection was performed with the Bio-Rad Gene pulser making use of 0.4 cm electrode cuvettes. Cells were electroporated in the presence of […] of linearised pHIVΔRT plasmid and approximately 5 μg of RT PCR product at 250SF and 300 V, followed by a 30-min incubation at room temperature. Subsequently, 10 ml of fresh culture medium was added to the cell suspension and incubation was performed at 37° C. in a humidified atmosphere of 5% CO2.
(§3) During 7 to 10 days following the transfection, cells were monitored for the appearance of cytopathogenic effect (CPE). In the absence thereof, cells were subcultured in different flasks. Subsequently, culture supernatants of transfected cells were used to create a stock of recombinant virus and stored in 1.5 ml aliquots at −70° C.
(§4) After titration of the new viruses, the stocks were used for antiviral experiments in the presence of serial dilutions of different HIV inhibitors. Titres of the harvested supematants were determined by limited serial dilution titration of virus in MT4 cells.
(§5) Viruses with a useful titre were used in antiviral experiments. For this purpose, 96-well microtitre plates were filled with 100μl of complete culture medium. Subsequently, stock solutions of compounds were added in 25 μl volumes to series of duplicate wells. HIV- and mock-infected cell samples were included for each drug (or drug combination). Exponentially growing MT4 cells were then transferred to the microtitre plates at a density of 150,000 cells/ml. The cell cultures were then incubated at 37° C. in a humidified atmosphere of 5% CO2. Five days after infection, the viability of the mock- and HIV-infected cells was examined spectrophotometrically by the M1T method (Pauwels, R. et al. J. Virol. Meth. (1988), 20: 309-321) as described in Section 6 below.
(§6) To each well of the microtiter plates, 20 μl of a solution of MTT (7.5 mg/ml in PBS) was added. The plates were further incubated at 37° C. for 1 h. Then, 150 μl of medium was removed without disturbing the MT4 cell clusters containing the formazan crystals. Solubilization of the formazan crystals was achieved by adding 100 μl 5% Triton X-100 in acidified isopropanol (5 ml concentrated HCl per liter solvent). Complete dissolution of the formazan crystals was obtained after the plates had been placed on a plate shaker for 10 min. Finally the absorbances were read at two wavelengths (540 and 690 nm). From these optical density (OD) data, 50% inhibitory (IC50) and 50% cytotoxic (CC50) concentrations were derived.
An HIV infected patient who received AZT from December 1989 until an undocumented later date, and switched to a combined chemotherapy of AZT+3TC (1:1) from February 1994 until October 1995 donated plasma whose susceptibility to a number of RT inhibitors was determined according to the above described protocol of Example 1. Recombinant wild type HIV strain recIIIB was used in said protocol as a reference HIV virus.

[2] = system: recombinant virus from patient viral RNA (Example 9); test: Recombinant virus assay (MT4/MTT), patient of Example 9 (multiple nucleoside analogue RT-inhibitors); conditions: for IC50: Human immunodeficiency virus 1, Table 5, Example 9 patient virus
Experimental: as §1, §2, §3, §4, §5, §6
An HIV-infected patient with a therapy history including multiple nucleoside analogue RT-inhibitors donated plasma whose susceptibility to a number of RT inhibitors was determined according to the protocol set out in Example 1. Recombinant wild type HIV strain recIIIB was used as a reference HIV virus.

[3] = system: recombinant virus from patient viral RNA (Example 7, drug-naive patient); test: Recombinant virus assay (MT4/MTT), drug-naive patient of Example 7; conditions: for IC50: Human immunodeficiency virus 1, Table 3, Example 7 patient virus
Experimental: as §1, §2, §3, §4, §5, §6
A drug-naive HIV-infected patient donated plasma whose susceptibility to a number of RT inhibitors was determined according to the protocol set out in Example 1. Recombinant wild type HIV strain recIIIB was used as a reference HIV virus.

[4] = system: recombinant virus from patient viral RNA (Example 8); test: Recombinant virus assay (MT4/MTT), patient of Example 8 (therapy history AZT, 3TC and loviride); conditions: for IC50: Human immunodeficiency virus 1, Table 4, Example 8 patient virus
Experimental: as §1, §2, §3, §4, §5, §6
An HIV-infected patient with a therapy history including AZT, 3TC and loviride donated plasma whose susceptibility to a number of RT inhibitors was determined according to the protocol set out in Example 1. Recombinant wild type HIV strain recIIIB was used as a reference HIV virus.

[5] = system: recombinant virus from patient viral RNA (Example 6, drug-naive patient); test: Recombinant virus assay (MT4/MTT), drug-naive patient of Example 6; conditions: for IC50: Human immunodeficiency virus 1, Table 2, Example 6 patient virus
Experimental: as §1, §2, §3, §4, §5, §6
A drug-naive HIV infected patient donated plasma whose susceptibility to a number of RT inhibitors was determined according to the above described protocol of Example 1. Recombinant wild type HIV strain recIIIB was used in said protocol as a reference HIV virus.

[6] = system: Recombinant wild type HIV strain recIIIB; test: Antiviral MT4/MTT assay with reference virus recIIIB
[7] = MT4 cells, read-out: Anti-HIV-1 activity IC50 (μM) Exp. 1
[8] = MT4 cells, read-out: Anti-HIV-1 activity IC50 (μM) Exp. 2
[9] = mean, read-out: Anti-HIV-1 activity IC50 (μM) Mean (1)

`Cc1cn([C@H]2C=C[C@@H](CO)O2)c(=O)[nH]c1=O` [d4T, stavudine] was tested, and the IC50 ([1]; Human immunodeficiency virus 1, MT4, read-out: Anti-HIV-1 activity IC50 (μM) Exp. 1) was 0.07 µM, the IC50 ([1]; Human immunodeficiency virus 1, MT4, read-out: Anti-HIV-1 activity IC50 (μM) Exp. 2) was 0.49 µM and the IC50 ([1]; Human immunodeficiency virus 1, read-out: Anti-HIV-1 activity IC50 (μM) Mean (1)) was 0.06 µM. For the same molecule, the “ratio (1)/(2)” value ([1]; Table 1, patient mean IC50 / recIIIB IC50, Example 5) was 0.5, the IC50 [2, 7] was over 100 µM and the IC50 [2, 8] was over 100 µM. For the same molecule, the IC50 [2, 9] was over 100 µM, the “ratio (1)/(2)” value ([2]; Table 5, patient mean IC50 / recIIIB IC50, Example 9) was over 8 and the IC50 [3, 7] was 1.14 µM. The IC50 [3, 8] was 1.66 µM, the IC50 [3, 9] was 1.4 µM and the “ratio (1)/(2)” value ([3]; Table 3, patient mean IC50 / recIIIB IC50, Example 7) was 1. The IC50 [4, 7] was 7.5 µM, the IC50 [4, 8] was 7.1 µM and the IC50 [4, 9] was 7.3 µM. The “ratio (1)/(2)” value ([4]; Table 4, patient mean IC50 / recIIIB IC50, Example 8) was 1, the IC50 [5, 7] was 1.31 µM and the IC50 [5, 8] was 0.97 µM. For the same molecule, the IC50 ([5]; mean of Exp. 1 and 2, read-out: Anti-HIV-1 activity IC50 (μM) Mean (1)) was 1.14 µM, the “ratio (1)/(2)” value ([5]; Table 2, patient mean IC50 / recIIIB IC50, Example 6) was 1 and the IC50 ([6]; Human immunodeficiency virus 1, Table 2, reference run of Example 6, read-out: Anti-HIV-1 activity IC50 (μM) recIIIB ref (2)) was 1.74 µM. For the same molecule, the IC50 ([6]; Human immunodeficiency virus 1, Table 3, reference run of Example 7, read-out: Anti-HIV-1 activity IC50 (μM) recIIIB ref (2)) was 1.37 µM, the IC50 ([6]; Human immunodeficiency virus 1, Table 4, reference run of Example 8, read-out: Anti-HIV-1 activity IC50 (μM) recIIIB ref (2)) was 5.46 µM and the IC50 ([6]; Human immunodeficiency virus 1, Table 5, reference run of Example 9, read-out: Anti-HIV-1 activity IC50 (μM) recIIIB ref (2)) was 12 µM. The IC50 ([6]; Human immunodeficiency virus 1, read-out: Anti-HIV-1 activity IC50 (μM) recIIIB ref (2), Table 1, reference run of Example 5) was 0.12 µM.
